We go through 21 compounds from ChEMBL document CHEMBL1153780, “Synthesis and antibacterial activity of some new thiazole and thiophene derivatives” (2009).

Converted amounts (≈) assume the structure as drawn.

Common to all, as to format: functional
In assay [1] the test system is Bacillus thuringiensis. Description: Antibacterial activity against Bacillus thuringiensis at 2 mg/ml by agar diffusion method. To be noted: read-out: DIZ. (A growth-free zone around the sample is the usual read-out of agar diffusion tests.)
Assay [2] concerns Escherichia coli. Description: Antibacterial activity against Escherichia coli at 2 mg/ml by agar diffusion method. Conditions: read-out: DIZ.
For assay [3], the system named is Escherichia coli. Description: Antibacterial activity against Escherichia coli by twofold serial broth dilution method.
Assay [4] relates to Bacillus thuringiensis. Description: Antibacterial activity against Bacillus thuringiensis by twofold serial broth dilution method. For orientation: Dilution methods test growth across graded concentrations, often in twofold steps.

As for `COc1ccc(/C=c2\c(=O)s/c(=C(\C#N)C(=O)N3NC(=O)C4C5c6ccccc6C(c6ccccc65)C4C3=O)n2-c2ccccc2)cc1` (stereo unspecified), the results for the zone of inhibition at 2000 µg/mL in the assay on Bacillus thuringiensis [1] and in the assay on Escherichia coli [2] were 11 mm and 13 mm, respectively.

Turning to `N#C/C(C(=O)N1NC(=O)C2C3c4ccccc4C(c4ccccc43)C2C1=O)=c1\sc(=O)/c(=C2\C(=O)Nc3ccccc32)n1-c1ccccc1` (stereo unspecified), the zone of inhibition at 2000 µg/mL in the assay on Bacillus thuringiensis [1] and with Escherichia coli [2] was 15 mm in each case.

As to `N#C/C(C(=O)N1NC(=O)C2C3c4ccccc4C(c4ccccc43)C2C1=O)=c1\sc(=O)c(=C2C(=O)c3ccccc3C2=O)n1-c1ccccc1` (stereo unspecified), the results for the zone of inhibition at 2000 µg/mL in the assay with Bacillus thuringiensis [1] and in the assay on Escherichia coli [2] were 19 mm and 25 mm, respectively. Moreover, the values for the MIC with Escherichia coli [3] and in the assay with Bacillus thuringiensis [4] were 12.5 µg/mL (≈ 18.5 µM) and 50 µg/mL (≈ 74.1 µM), respectively.

On to `N#C/C(C(=O)N1NC(=O)C2C3c4ccccc4C(c4ccccc43)C2C1=O)=C1\SC=C(c2ccccc2)N1c1ccccc1` (stereo unspecified), for which the results for the zone of inhibition at 2000 µg/mL in the assay with Bacillus thuringiensis [1] and with Escherichia coli [2] were 39 mm and 40 mm, respectively. The MIC against Escherichia coli [3] and against Bacillus thuringiensis [4] was 6 µg/mL (≈ 10.1 µM) in each case.

For `Nc1c(C(=O)c2ccccc2)sc(Nc2ccccc2)c1C(=O)N1NC(=O)C2C3c4ccccc4C(c4ccccc43)C2C1=O` (stereo unspecified), the results for the zone of inhibition at 2000 µg/mL in the assay on Bacillus thuringiensis [1] and in the assay on Escherichia coli [2] were 17 mm and 20 mm, respectively. Also, the MIC (usually the least concentration at which growth counts as inhibited) was 12.5 µg/mL (≈ 20.5 µM) against Escherichia coli [3] and 50 µg/mL (≈ 81.9 µM) against Bacillus thuringiensis [4].

As for `N#C/C(C(=O)N1NC(=O)C2C3c4ccccc4C(c4ccccc43)C2C1=O)=C(\S)Nc1ccccc1` (stereo unspecified), the zone of inhibition at 2000 µg/mL with Bacillus thuringiensis [1] and in the assay with Escherichia coli [2] was 22 mm each time. The MIC in the assay with Escherichia coli [3] and against Bacillus thuringiensis [4] was 12.5 µg/mL (≈ 25.4 µM) in each case.

In the case of `N#C/C(C(=O)N1NC(=O)C2C3c4ccccc4C(c4ccccc43)C2C1=O)=C1\SCC(=O)N1c1ccccc1` (stereo unspecified), the zone of inhibition at 2000 µg/mL in the assay on Bacillus thuringiensis [1] came out at 24 mm; with Escherichia coli [2], 26 mm. Also, the minimum inhibitory concentration (MIC) against Escherichia coli [3] and against Bacillus thuringiensis [4] was 12.5 µg/mL (≈ 23.5 µM) each time.

Consider `CN(C)/C=N/N1C(=O)C2C3c4ccccc4C(c4ccccc43)C2C1=O` (stereo unspecified), for which the values for the zone of inhibition at 2000 µg/mL with Bacillus thuringiensis [1] and with Escherichia coli [2] were 20 mm and 21 mm, respectively. The values for the MIC against Escherichia coli [3] and with Bacillus thuringiensis [4] were 12.5 µg/mL (≈ 36.2 µM) and 50 µg/mL (≈ 145 µM), respectively.

Regarding `CC(=O)c1sc(Nc2ccccc2)c(C(=O)N2NC(=O)C3C4c5ccccc5C(c5ccccc54)C3C2=O)c1N` (stereo unspecified), the zone of inhibition at 2000 µg/mL with Bacillus thuringiensis [1] was determined as 15 mm; in the assay with Escherichia coli [2], 13 mm.

In the case of `N#Cc1sc(Nc2ccccc2)c(C(=O)N2NC(=O)C3C4c5ccccc5C(c5ccccc54)C3C2=O)c1N` (stereo unspecified), in the assay on Escherichia coli [2], the zone of inhibition at 2000 µg/mL was 20 mm. The compound further returned a minimum inhibitory concentration (MIC) with Escherichia coli [3] of 12.5 µg/mL (≈ 23.5 µM).

As to `N#C/C(C(=O)N1NC(=O)C2C3c4ccccc4C(c4ccccc43)C2C1=O)=C1/Nc2ccccc2S1` (stereo unspecified), the zone of inhibition at 2000 µg/mL in the assay on Bacillus thuringiensis [1] amounted to 30 mm; in the assay on Escherichia coli [2] it was 26 mm. Moreover, the MIC in the assay with Escherichia coli [3] is 12.5 µg/mL (≈ 25.5 µM); with Bacillus thuringiensis [4] it was 6 µg/mL (≈ 12.2 µM).

Regarding `CC1=CS/C(=C(\C#N)C(=O)N2NC(=O)C3C4c5ccccc5C(c5ccccc54)C3C2=O)N1c1ccccc1` (stereo unspecified), the zone of inhibition at 2000 µg/mL in the assay on Bacillus thuringiensis [1] was found to be 28 mm; in the assay with Escherichia coli [2] it was 30 mm. Further, the MIC with Escherichia coli [3] and against Bacillus thuringiensis [4] was 12.5 µg/mL (≈ 23.6 µM) in each case.

For `Cc1csc(N2NC(=O)C3C4c5ccccc5C(c5ccccc54)C3C2=O)n1` (stereo unspecified), the zone of inhibition at 2000 µg/mL in the assay with Bacillus thuringiensis [1] stood at 40 mm; with Escherichia coli [2], 16 mm. Moreover, the figures for the MIC against Escherichia coli [3] and against Bacillus thuringiensis [4] were 50 µg/mL (≈ 129 µM) and 6 µg/mL (≈ 15.5 µM), respectively.

Regarding `N#C/C(C(=O)N1NC(=O)C2C3c4ccccc4C(c4ccccc43)C2C1=O)=C1\SC(=O)CN1c1ccccc1` (stereo unspecified), the zone of inhibition at 2000 µg/mL is 17 mm in the assay on Bacillus thuringiensis [1] and 18 mm with Escherichia coli [2].

Turning to `O=C1NN(c2nc(-c3ccccc3)cs2)C(=O)C2C3c4ccccc4C(c4ccccc43)C12` (stereo unspecified), the zone of inhibition at 2000 µg/mL in the assay with Bacillus thuringiensis [1] worked out at 23 mm; in the assay with Escherichia coli [2], 15 mm. In addition, the minimum inhibitory concentration (MIC) worked out at 50 µg/mL (≈ 111 µM) against Escherichia coli [3] and 12.5 µg/mL (≈ 27.8 µM) against Bacillus thuringiensis [4].

In the case of `O=C1CSC(N2NC(=O)C3C4c5ccccc5C(c5ccccc54)C3C2=O)=N1` (stereo unspecified), the figures for the zone of inhibition at 2000 µg/mL with Bacillus thuringiensis [1] and in the assay with Escherichia coli [2] were 24 mm and 26 mm, respectively. For the same compound, the minimum inhibitory concentration (MIC) in the assay on Escherichia coli [3] and with Bacillus thuringiensis [4] was 12.5 µg/mL (≈ 32.1 µM) throughout.

As for `O=C1NN(c2nc(-c3ccccc3)c(Br)s2)C(=O)C2C3c4ccccc4C(c4ccccc43)C12` (stereo unspecified), the zone of inhibition at 2000 µg/mL in the assay on Escherichia coli [2] was 12 mm.

Regarding `N#C/C(C(=O)N1NC(=O)C2C3c4ccccc4C(c4ccccc43)C2C1=O)=C1\SCCN1c1ccccc1` (stereo unspecified), the values for the zone of inhibition at 2000 µg/mL in the assay on Bacillus thuringiensis [1] and with Escherichia coli [2] were 22 mm and 15 mm, respectively. For the same compound, the minimum inhibitory concentration (MIC) against Escherichia coli [3] turned out to be 50 µg/mL (≈ 96.4 µM); against Bacillus thuringiensis [4], 12.5 µg/mL (≈ 24.1 µM).

In the case of `N#C/C(C(=O)N1NC(=O)C2C3c4ccccc4C(c4ccccc43)C2C1=O)=C1\SCCCN1c1ccccc1` (stereo unspecified), the zone of inhibition at 2000 µg/mL with Bacillus thuringiensis [1] stood at 19 mm; with Escherichia coli [2] it was 25 mm. Moreover, the MIC in the assay with Escherichia coli [3] was determined as 12.5 µg/mL (≈ 23.5 µM); in the assay on Bacillus thuringiensis [4], 50 µg/mL (≈ 93.9 µM).

Turning to `CC1(C)S[C@@H]2[C@H](NC(=O)[C@H](N)c3ccccc3)C(=O)N2[C@H]1C(=O)O` [AMPICILLIN], the zone of inhibition at 2000 µg/mL was 18 mm in the assay on Bacillus thuringiensis [1] and 19 mm in the assay with Escherichia coli [2]. Besides, the MIC against Escherichia coli [3] and against Bacillus thuringiensis [4] was 12.5 µg/mL (≈ 35.8 µM) each time.

On to `O=C(N[C@H](CO)[C@H](O)c1ccc([N+](=O)[O-])cc1)C(Cl)Cl` [CHLORAMPHENICOL], for which the zone of inhibition at 2000 µg/mL in the assay with Bacillus thuringiensis [1] came out at 23 mm; in the assay on Escherichia coli [2], 19 mm. For the same compound, the minimal inhibitory concentration (MIC) in the assay on Escherichia coli [3] and against Bacillus thuringiensis [4] was 12.5 µg/mL (≈ 38.7 µM) in each case.
